Reference: ChEMBL document CHEMBL1201862, “PubChem BioAssay data set” (2004)
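These data come from cells grown in 96-well plates and exposed to compound for 48 hours at five concentrations. Here, GI50 denotes the concentration required for 50% inhibition of growth.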 Activity calls are given as the source filed them. Cut-off read from the data, not from the text of the source: active = GI50 up to about 1.1 µM and inactive = higher. Where a SMILES comes first, the peptide text is derived from it. [ ]: non-standard residue; d: D form. Phe(4-NO2) = N[CH](Cc1ccc([N+](=O)[O-])cc1)C(=O)O

How the values were obtained:
Experiment in all cases: NCI anticancer screen, dose series, 48 h
UO-31 = tested on: UO-31
SR = tested on: SR
SF-539 = tested on: SF-539
SN12C = tested on: SN12C
ACHN = tested on: ACHN
SK-MEL-28 = tested on: SK-MEL-28
COLO 205 = tested on: COLO 205
CAKI-1 = tested on: CAKI-1
LOX IMVI = tested on: LOX IMVI
SNB-19 = tested on: SNB-19
NCI-H460 = tested on: NCI-H460
KM12 = tested on: KM12
SK-MEL-5 = tested on: SK-MEL-5
786-0 = tested on: 786-0
UACC-62 = tested on: UACC-62
HOP-62 = tested on: HOP-62
HOP-92 = tested on: HOP-92
NCI-H522 = tested on: NCI-H522

Row | SMILES | GI50 (UO-31) | GI50 (SR) | GI50 (SF-539) | GI50 (SN12C) | GI50 (ACHN) | GI50 (SK-MEL-28) | GI50 (COLO 205) | GI50 (CAKI-1) | GI50 (LOX IMVI) | GI50 (SNB-19) | GI50 (NCI-H460) | GI50 (KM12) | GI50 (SK-MEL-5) | GI50 (786-0) | GI50 (UACC-62) | GI50 (HOP-62) | GI50 (HOP-92) | GI50 (NCI-H522)
1 | O=[N+]([O-])c1nccn1COCCBr | > 100 µM (inactive) | > 100 µM (inactive) | > 100 µM (inactive) | > 100 µM (inactive) | > 100 µM (inactive) | > 100 µM (inactive) | > 10 µM (inactive) | > 100 µM (inactive) | > 100 µM (inactive) | > 100 µM (inactive) | > 100 µM (inactive) | > 100 µM (inactive) | > 100 µM (inactive) | > 100 µM (inactive) | > 100 µM (inactive) | > 100 µM (inactive) | > 100 µM (inactive) | > 100 µM (inactive)
2 | CCOC(=O)C1=C(C)N(NC(N)=O)C2(N)N(NC(N)=O)C(C)=C(C(=O)OCC)C12C(=O)OCC (stereo unspecified) | > 100 µM (inactive) | > 100 µM (inactive) | > 100 µM (inactive) | > 100 µM (inactive) | > 100 µM (inactive) | > 100 µM (inactive) |  | > 100 µM (inactive) | > 100 µM (inactive) | > 100 µM (inactive) | > 100 µM (inactive) | > 100 µM (inactive) | > 100 µM (inactive) | > 100 µM (inactive) | > 100 µM (inactive) | > 100 µM (inactive) |  | > 100 µM (inactive)
3 | CC(c1ccccc1)n1c2ccccc2c2c(N)ncnc21 (stereo unspecified) | 9.16 µM (inactive) | 24.7 µM (inactive) | 17.1 µM (inactive) |  | 11.7 µM (inactive) | 17.9 µM (inactive) |  | 16.1 µM (inactive) | 17.5 µM (inactive) | 16.5 µM (inactive) | 24.3 µM (inactive) |  | 19.5 µM (inactive) | 14.9 µM (inactive) |  | 17.5 µM (inactive) | 13.6 µM (inactive) | 13.6 µM (inactive)
4 | CCOC(=O)Cc1cc(=O)[nH]c(-n2[nH]c(C)c(CCO)c2=O)n1 | > 100 µM (inactive) |  | > 100 µM (inactive) | > 100 µM (inactive) | > 100 µM (inactive) | > 100 µM (inactive) | > 100 µM (inactive) | > 100 µM (inactive) | > 100 µM (inactive) | > 100 µM (inactive) | > 100 µM (inactive) | > 100 µM (inactive) | > 100 µM (inactive) | > 100 µM (inactive) | > 100 µM (inactive) | > 100 µM (inactive) |  | > 100 µM (inactive)
5 | COC(=O)CCC(NC(=O)C(CCC(=O)OC)NC(=O)C(CCC(=O)OC)NC(=O)C(CCC(=O)OC)NC(=O)C(CCC(=O)OC)NC(=O)C(Cc1ccc([N+](=O)[O-])cc1)NC(=O)C(CCC(=O)OC)NC(=O)C(CCC(=O)OC)NC(=O)C(CCC(=O)OC)NC(=O)C(CCC(=O)OC)NC(=O)C(CCC(=O)OC)NC(C)=O)C(N)=O (stereo unspecified) (Ac-E(OMe)E(OMe)E(OMe)E(OMe)E(OMe)[Phe(4-NO2)]E(OMe)E(OMe)E(OMe)E(OMe)E(OMe)-NH2; configuration not given here) | > 100 µM (inactive) | > 100 µM (inactive) |  | > 100 µM (inactive) | > 100 µM (inactive) | > 100 µM (inactive) | > 100 µM (inactive) | > 100 µM (inactive) | > 100 µM (inactive) | > 100 µM (inactive) | > 100 µM (inactive) | > 100 µM (inactive) | 26.1 µM (inactive) | > 100 µM (inactive) | > 10 µM (inactive) |  |  | > 100 µM (inactive)
6 | O=C1CCC2CCC1C2 (stereo unspecified) | > 100 µM (inactive) |  | > 100 µM (inactive) | > 100 µM (inactive) | > 100 µM (inactive) | > 100 µM (inactive) | > 100 µM (inactive) | > 100 µM (inactive) | > 100 µM (inactive) | > 100 µM (inactive) | > 100 µM (inactive) | > 100 µM (inactive) | > 100 µM (inactive) | > 100 µM (inactive) | > 100 µM (inactive) | > 100 µM (inactive) |  | 
7 | CC(=O)OCC(C)C1=C(OC(C)=O)C(=O)C2(C)C/C=C(/C)CC/C=C(\C)CCC(OC(C)=O)C(C)CCC12 (stereo unspecified) | 16.8 µM (inactive) | 17.9 µM (inactive) | 22.2 µM (inactive) | 20.1 µM (inactive) | 18.2 µM (inactive) | 17.3 µM (inactive) | 20.8 µM (inactive) |  | 16.9 µM (inactive) | 17.3 µM (inactive) | 3.55 µM (inactive) | 17.8 µM (inactive) | 15.3 µM (inactive) | 13.7 µM (inactive) | 14.4 µM (inactive) | 14.2 µM (inactive) | 7.23 µM (inactive) | 
8 | O=c1[nH]c(=O)n(C2CC(O)C(CO)O2)cc1/N=N/NCCCc1ccccc1 (stereo unspecified) | < 0.01 µM (active) | > 100 µM (inactive) | > 100 µM (inactive) | > 100 µM (inactive) | > 100 µM (inactive) | > 100 µM (inactive) | > 100 µM (inactive) | > 100 µM (inactive) | > 100 µM (inactive) |  | > 100 µM (inactive) | > 100 µM (inactive) | > 100 µM (inactive) | > 100 µM (inactive) | > 100 µM (inactive) | > 100 µM (inactive) | > 100 µM (inactive) | 
